Results reported in paper PMC6946680, “Modulation of brain cation-Cl^− cotransport via the SPAK kinase inhibitor ZT-1a” (Nature Communications, 2020).

Tests used:
Assay in all cases: Kinase profiling panel
Format in all cases: biochemical
[1] = system: CAMK1
Description: (§1) Supplementary Table 2. ZT-1a kinase profiling data6.
(§2) ZT-1a was tested at 10 and 1 µM against a panel of 140 recombinant kinases in an enzymatic
(§3) activity-based assay performed by the International Centre for Kinase Profiling in the MRC
(§4) Protein Phosphorylation and Ubiquitylation Unit. Values represent % residual kinase activity

[2] = system: SYK
Description: as §1, §2, §3, §4

[3] = system: PAK6
Description: as §1, §2, §3, §4

[4] = system: PDK1
Description: as §1, §2, §3, §4

[5] = system: PKA
Description: as §1, §2, §3, §4

[6] = system: MARK4
Description: as §1, §2, §3, §4

[7] = system: Src
Description: as §1, §2, §3, §4

[8] = system: MKK2
Description: as §1, §2, §3, §4

[9] = system: IGF-1R
Description: as §1, §2, §3, §4

[10] = system: MST3
Description: as §1, §2, §3, §4

[11] = system: ERK2
Description: as §1, §2, §3, §4

[12] = system: SRPK1
Description: as §1, §2, §3, §4

[13] = system: PAK5
Description: as §1, §2, §3, §4

[14] = system: LKB1
Description: as §1, §2, §3, §4

[15] = system: EPH-B3
Description: as §1, §2, §3, §4

[16] = system: TBK1
Description: as §1, §2, §3, §4

[17] = system: DDR2
Description: as §1, §2, §3, §4

[18] = system: TTBK1
Description: as §1, §2, §3, §4

[19] = system: Aurora A
Description: as §1, §2, §3, §4

[20] = system: TAO1
Description: as §1, §2, §3, §4

[21] = system: PKCγ
Description: as §1, §2, §3, §4

[22] = system: MSK1
Description: as §1, §2, §3, §4

[23] = system: CHK1
Description: as §1, §2, §3, §4

[24] = system: ULK1
Description: as §1, §2, §3, §4

[25] = system: RSK1
Description: as §1, §2, §3, §4

[26] = system: PKBa
Description: as §1, §2, §3, §4

[27] = system: MELK
Description: as §1, §2, §3, §4

[28] = system: p38d MAPK
Description: as §1, §2, §3, §4

[29] = system: DYRK2
Description: as §1, §2, §3, §4

[30] = system: CHK2
Description: as §1, §2, §3, §4

[31] = system: CLK2
Description: as §1, §2, §3, §4

[32] = system: MKK1
Description: as §1, §2, §3, §4

[33] = system: CAMKKb
Description: as §1, §2, §3, §4

[34] = system: PHK
Description: as §1, §2, §3, §4

[35] = system: ASK1
Description: as §1, §2, §3, §4

[36] = system: IRR
Description: as §1, §2, §3, §4

[37] = system: TLK1
Description: as §1, §2, §3, §4

[38] = system: TGFBR1
Description: as §1, §2, §3, §4

[39] = system: RSK2
Description: as §1, §2, §3, §4

[40] = system: YES1
Description: as §1, §2, §3, §4

[41] = system: ROCK 2
Description: as §1, §2, §3, §4

[42] = system: EPH-A2
Description: as §1, §2, §3, §4

[43] = system: JNK1
Description: as §1, §2, §3, §4

[44] = system: p38a MAPK
Description: as §1, §2, §3, §4

Cc1cc(C(C#N)c2ccc(Cl)cc2)c(Cl)cc1NC(=O)c1cc(Cl)ccc1O (stereo not shown) [ZT-1a, 5-chloro-N-(5-chloro-4-((4-chlorophenyl)(cyano)methyl)-2-methylphenyl)-2-hydroxybenzamide]
% residual kinase activity ([1]; 1 µM): 60±5%
% residual kinase activity ([1]; 10 µM): 71±31%
% residual kinase activity ([2]; 1 µM): 93±12%
% residual kinase activity ([2]; 10 µM): 93±1%
% residual kinase activity ([3]; 1 µM): 69±2%
% residual kinase activity ([3]; 10 µM): 75±4%
% residual kinase activity ([4]; 1 µM): 92±6%
% residual kinase activity ([4]; 10 µM): 69±17%
% residual kinase activity ([5]; 1 µM): 80±11%
% residual kinase activity ([5]; 10 µM): 50±2%
% residual kinase activity ([6]; 1 µM): 68±8%
% residual kinase activity ([6]; 10 µM): 59±9%
% residual kinase activity ([7]; 1 µM): 107±4%
% residual kinase activity ([7]; 10 µM): 84±13%
% residual kinase activity ([8]; 1 µM): 126±2%
% residual kinase activity ([8]; 10 µM): 81±27%
% residual kinase activity ([9]; 1 µM): 145±2%
% residual kinase activity ([9]; 10 µM): 123±3%
% residual kinase activity ([10]; 1 µM): 109±8%
% residual kinase activity ([10]; 10 µM): 113±15%
% residual kinase activity ([11]; 1 µM): 111±25%
% residual kinase activity ([11]; 10 µM): 75±3%
% residual kinase activity ([12]; 1 µM): 104±5%
% residual kinase activity ([12]; 10 µM): 73±20%
% residual kinase activity ([13]; 1 µM): 93±26%
% residual kinase activity ([13]; 10 µM): 93±4%
% residual kinase activity ([14]; 1 µM): 107±8%
% residual kinase activity ([14]; 10 µM): 115±11%
% residual kinase activity ([15]; 1 µM): 88±6%
% residual kinase activity ([15]; 10 µM): 84±6%
% residual kinase activity ([16]; 1 µM): 119±10%
% residual kinase activity ([16]; 10 µM): 94±3%
% residual kinase activity ([17]; 1 µM): 111±20%
% residual kinase activity ([17]; 10 µM): 99±8%
% residual kinase activity ([18]; 1 µM): 119±5%
% residual kinase activity ([18]; 10 µM): 102±2%
% residual kinase activity ([19]; 1 µM): 73±19%
% residual kinase activity ([19]; 10 µM): 65±1%
% residual kinase activity ([20]; 1 µM): 66±2%
% residual kinase activity ([20]; 10 µM): 104±2%
% residual kinase activity ([21]; 1 µM): 133±11%
% residual kinase activity ([21]; 10 µM): 120±8%
% residual kinase activity ([22]; 1 µM): 114±6%
% residual kinase activity ([22]; 10 µM): 112±14%
% residual kinase activity ([23]; 1 µM): 111±11%
% residual kinase activity ([23]; 10 µM): 109±8%
% residual kinase activity ([24]; 1 µM): 87±10%
% residual kinase activity ([24]; 10 µM): 89±13%
% residual kinase activity ([25]; 1 µM): 95±2%
% residual kinase activity ([25]; 10 µM): 87±4%
% residual kinase activity ([26]; 1 µM): 104±1%
% residual kinase activity ([26]; 10 µM): 91±4%
% residual kinase activity ([27]; 1 µM): 130±34%
% residual kinase activity ([27]; 10 µM): 63±3%
% residual kinase activity ([28]; 1 µM): 95±1%
% residual kinase activity ([28]; 10 µM): 112±2%
% residual kinase activity ([29]; 1 µM): 111±15%
% residual kinase activity ([29]; 10 µM): 97±10%
% residual kinase activity ([30]; 1 µM): 106±1%
% residual kinase activity ([30]; 10 µM): 68±6%
% residual kinase activity ([31]; 1 µM): 68±12%
% residual kinase activity ([31]; 10 µM): 33±45%
% residual kinase activity ([32]; 1 µM): 106±2%
% residual kinase activity ([32]; 10 µM): 114±17%
% residual kinase activity ([33]; 1 µM): 115±10%
% residual kinase activity ([33]; 10 µM): 102±9%
% residual kinase activity ([34]; 1 µM): 97±3%
% residual kinase activity ([34]; 10 µM): 107±2%
% residual kinase activity ([35]; 1 µM): 101±3%
% residual kinase activity ([35]; 10 µM): 100±11%
% residual kinase activity ([36]; 1 µM): 105±5%
% residual kinase activity ([36]; 10 µM): 95±4%
% residual kinase activity ([37]; 1 µM): 130±13%
% residual kinase activity ([37]; 10 µM): 124±4%
% residual kinase activity ([38]; 1 µM): 63±9%
% residual kinase activity ([38]; 10 µM): 77±5%
% residual kinase activity ([39]; 1 µM): 116±5%
% residual kinase activity ([39]; 10 µM): 101±3%
% residual kinase activity ([40]; 1 µM): 109±3%
% residual kinase activity ([40]; 10 µM): 98±7%
% residual kinase activity ([41]; 1 µM): 109±6%
% residual kinase activity ([41]; 10 µM): 101±10%
% residual kinase activity ([42]; 1 µM): 89±23%
% residual kinase activity ([42]; 10 µM): 78±11%
% residual kinase activity ([43]; 1 µM): 106±4%
% residual kinase activity ([43]; 10 µM): 110±5%
% residual kinase activity ([44]; 1 µM): 128±7%
% residual kinase activity ([44]; 10 µM): 113±2%
